# Measured values: patent publication US20040137592A1, “Novel SMG-1” (Japan Science and Technology Agency, priority 2001, published 2004)
# Like-named read-outs stand apart in the source and are kept apart here.
# Columns and labels:
# [1] = system: hUpf1/SMG-2 in HeLa cells; assay: mobility shift of hUpf1/SMG-2 in HeLa cells treated with okadaic acid, Western blotting; format: cell-based, human; conditions: various concentrations, 4.5 hours, FIG. 23
# Protocol: The HeLa cells were treated with various concentrations of okadaic acid (OA; Calbiochem) for 4.5 hours, and then were recovered and dissolved in the 1×SDS sample buffer. After 6% SDS-PAGE was performed, Western blotting using an anti-hUpf1/SMG-2 antibody was performed to determine the mobility shift of hUpf1/SMG-2.
# [2] = system: BGG-39PTC mRNA in MEF-Tet OFF cells; assay: BGG reporter mRNA accumulation (NMD) in MEF-Tet OFF cells, Northern blotting; format: cell-based; conditions: 4.5 hours, 50 ng/ml doxycycline, FIG. 29
# Protocol: More particularly, MEF-Tet OFF cells were transfected with the reporter plasmid BGG-WT or the reporter plasmid BGG-39 PTC, and re-inoculated in eight dishes. The cells were then treated for 4.5 hours in the presence of 50 ng/ml doxycycline by various concentrations of caffeine (caff.), wortmannin (wort.), rapamycin (rap.), or cyclohexamide (CHX) shown in FIG. 29.
# The Total RNA was analyzed by Northern blotting using the BGG probe. In FIG. 29, “BG WT” means the results in the case of use of the reporter plasmid BGG-WT, “BG PTC” means the results in the case of use of the reporter plasmid BGG-39PTC, and “GAPDH” means the results in the case of use of the cDNA of glyceryl aldehyde-3-phosphate dehydrogenase as a probe. Further, “cont.”, “caff.”, “wort.”, “rap.”, and “CHX” show the results of the control (that is, in the absence of wortmannin, caffeine, rapamycin, and cyclohexamide), the results in the presence of caffeine, the results in the presence of wortmannin, the results in the presence of rapamycin, and the results in the presence of cyclohexamide, respectively.
# [3] = biological target: T1, 6H-hSMG-1 (Homo sapiens, UniProt Q96Q15); assay: in vitro kinase assay of 6H-hSMG-1 with hUpf1/SMG-2 fusion protein (S1096) as substrate; format: biochemical; conditions: substrate hUpf1/SMG-2 fusion protein (S1096), read-out: IC50, inhibition of the kinase activity of 6H-hSMG-1
# T1 construct: made in house; host or cells: 293T cells transfected with SR6H-hSMG-1; immunoprecipitated with anti-polyhistidine antibody
# T1 sequence (Q96Q15 111-3661): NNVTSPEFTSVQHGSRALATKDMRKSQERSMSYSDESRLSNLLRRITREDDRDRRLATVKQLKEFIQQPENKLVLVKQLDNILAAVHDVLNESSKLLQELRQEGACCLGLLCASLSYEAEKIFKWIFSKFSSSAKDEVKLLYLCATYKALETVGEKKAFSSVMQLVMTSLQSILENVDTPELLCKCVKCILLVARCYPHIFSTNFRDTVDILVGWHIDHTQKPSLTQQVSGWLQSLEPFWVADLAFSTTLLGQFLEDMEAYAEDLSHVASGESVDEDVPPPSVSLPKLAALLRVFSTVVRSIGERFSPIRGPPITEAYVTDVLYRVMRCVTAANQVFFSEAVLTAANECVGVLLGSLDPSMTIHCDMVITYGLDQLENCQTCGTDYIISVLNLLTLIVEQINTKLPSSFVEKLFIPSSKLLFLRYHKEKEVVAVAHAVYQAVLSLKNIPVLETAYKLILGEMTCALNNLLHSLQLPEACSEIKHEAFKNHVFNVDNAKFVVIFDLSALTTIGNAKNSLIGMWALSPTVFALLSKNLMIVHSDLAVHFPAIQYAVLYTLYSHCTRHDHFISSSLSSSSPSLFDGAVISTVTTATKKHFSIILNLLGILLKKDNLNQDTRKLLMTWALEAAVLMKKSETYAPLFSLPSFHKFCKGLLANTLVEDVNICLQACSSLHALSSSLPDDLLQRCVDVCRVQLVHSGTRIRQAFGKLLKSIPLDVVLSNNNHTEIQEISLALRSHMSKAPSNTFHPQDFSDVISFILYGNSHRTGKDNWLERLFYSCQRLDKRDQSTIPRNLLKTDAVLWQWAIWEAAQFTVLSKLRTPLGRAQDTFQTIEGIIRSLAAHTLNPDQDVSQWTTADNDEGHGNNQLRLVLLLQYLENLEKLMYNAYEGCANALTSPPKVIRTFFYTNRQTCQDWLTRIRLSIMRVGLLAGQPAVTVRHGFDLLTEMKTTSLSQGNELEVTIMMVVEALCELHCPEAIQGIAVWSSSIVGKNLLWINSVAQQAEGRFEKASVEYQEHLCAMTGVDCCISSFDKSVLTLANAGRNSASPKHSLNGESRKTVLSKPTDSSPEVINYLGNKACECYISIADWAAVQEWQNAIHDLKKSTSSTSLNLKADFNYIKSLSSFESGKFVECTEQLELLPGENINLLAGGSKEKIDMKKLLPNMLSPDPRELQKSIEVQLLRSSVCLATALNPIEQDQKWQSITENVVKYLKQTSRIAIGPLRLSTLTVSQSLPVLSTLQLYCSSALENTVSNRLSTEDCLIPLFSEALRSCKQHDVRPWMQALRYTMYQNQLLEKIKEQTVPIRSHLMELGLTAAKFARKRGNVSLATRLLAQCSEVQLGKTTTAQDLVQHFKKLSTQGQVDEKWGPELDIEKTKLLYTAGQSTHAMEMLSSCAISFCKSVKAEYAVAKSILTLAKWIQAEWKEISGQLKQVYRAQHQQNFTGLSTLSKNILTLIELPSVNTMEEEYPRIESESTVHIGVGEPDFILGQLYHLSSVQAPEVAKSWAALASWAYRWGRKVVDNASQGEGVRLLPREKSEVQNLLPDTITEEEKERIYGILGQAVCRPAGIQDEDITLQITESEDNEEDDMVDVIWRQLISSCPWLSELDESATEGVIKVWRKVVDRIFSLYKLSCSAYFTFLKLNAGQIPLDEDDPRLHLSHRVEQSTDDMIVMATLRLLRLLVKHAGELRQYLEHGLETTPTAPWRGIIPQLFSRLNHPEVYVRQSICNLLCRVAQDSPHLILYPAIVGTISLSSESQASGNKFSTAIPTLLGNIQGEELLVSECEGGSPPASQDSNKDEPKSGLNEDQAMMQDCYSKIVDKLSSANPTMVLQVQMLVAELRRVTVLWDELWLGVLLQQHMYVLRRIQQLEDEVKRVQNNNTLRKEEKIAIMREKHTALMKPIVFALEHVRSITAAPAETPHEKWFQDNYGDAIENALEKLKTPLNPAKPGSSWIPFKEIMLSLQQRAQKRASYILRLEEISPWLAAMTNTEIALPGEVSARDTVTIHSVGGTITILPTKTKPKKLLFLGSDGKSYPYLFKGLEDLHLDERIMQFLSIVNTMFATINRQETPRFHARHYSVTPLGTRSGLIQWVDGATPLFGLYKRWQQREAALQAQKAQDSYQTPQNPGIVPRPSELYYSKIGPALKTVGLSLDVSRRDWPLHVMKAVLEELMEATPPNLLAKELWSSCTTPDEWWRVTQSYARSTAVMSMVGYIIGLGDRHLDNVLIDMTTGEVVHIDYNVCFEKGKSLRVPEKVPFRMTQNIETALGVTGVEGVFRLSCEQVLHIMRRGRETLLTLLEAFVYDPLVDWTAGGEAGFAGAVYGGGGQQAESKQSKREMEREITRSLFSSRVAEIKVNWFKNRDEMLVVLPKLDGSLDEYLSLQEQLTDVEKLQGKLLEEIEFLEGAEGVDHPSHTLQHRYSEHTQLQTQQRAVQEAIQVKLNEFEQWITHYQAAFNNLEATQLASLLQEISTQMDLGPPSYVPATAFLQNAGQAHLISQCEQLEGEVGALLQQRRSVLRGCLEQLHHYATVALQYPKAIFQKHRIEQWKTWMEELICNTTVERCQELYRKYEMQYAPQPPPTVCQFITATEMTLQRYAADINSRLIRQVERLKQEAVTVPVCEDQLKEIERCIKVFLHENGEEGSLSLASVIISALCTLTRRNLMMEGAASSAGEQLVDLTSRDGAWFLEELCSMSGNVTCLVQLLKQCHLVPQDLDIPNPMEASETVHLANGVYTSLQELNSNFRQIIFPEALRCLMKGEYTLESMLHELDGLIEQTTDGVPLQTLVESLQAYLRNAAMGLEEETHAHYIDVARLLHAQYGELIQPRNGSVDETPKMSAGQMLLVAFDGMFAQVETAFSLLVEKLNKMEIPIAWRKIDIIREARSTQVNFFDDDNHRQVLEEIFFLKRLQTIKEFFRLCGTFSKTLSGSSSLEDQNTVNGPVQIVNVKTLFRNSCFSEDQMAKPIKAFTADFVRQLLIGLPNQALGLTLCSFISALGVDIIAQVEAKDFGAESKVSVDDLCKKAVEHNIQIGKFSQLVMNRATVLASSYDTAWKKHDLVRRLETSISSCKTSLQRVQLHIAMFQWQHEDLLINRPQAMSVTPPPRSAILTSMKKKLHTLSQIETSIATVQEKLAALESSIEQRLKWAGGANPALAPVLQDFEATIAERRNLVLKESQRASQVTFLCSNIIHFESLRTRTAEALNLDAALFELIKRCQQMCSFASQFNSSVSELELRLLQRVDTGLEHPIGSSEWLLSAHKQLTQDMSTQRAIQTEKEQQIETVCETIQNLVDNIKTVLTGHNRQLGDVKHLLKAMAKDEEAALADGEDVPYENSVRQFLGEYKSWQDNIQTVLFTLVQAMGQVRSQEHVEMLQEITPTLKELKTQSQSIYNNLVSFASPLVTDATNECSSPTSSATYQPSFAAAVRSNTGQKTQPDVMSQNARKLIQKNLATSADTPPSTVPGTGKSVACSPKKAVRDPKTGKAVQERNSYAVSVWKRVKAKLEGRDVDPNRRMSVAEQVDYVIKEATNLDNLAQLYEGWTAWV
# Protocol: The immunoprecipitates obtained in the Example 6(1) were washed with a lysis buffer F containing 0.25 mol/L LiCl, and then washed two times with a 1×kinase reaction buffer [10 mmol/L HEPES-KOH (pH7.5), 50 mmol/L β-glycerophosphoric acid, 50 mmol/L NaCl, 1 mmol/L dithiothreitol (DTT), and 10 mmol/L MnCl2].
# To each of the washed immunoprecipitates, 25 μL of 2×kinase reaction buffer (that is, two-fold concentrations of the above kinase reaction buffer) was added. The phosphorylation reaction was started by adding 10 mmol/L ATP and 370 kBq [γ-^32P] ATP (6000 Ci/mmol; Amersham Pharmacia Biotech) in equal amounts (25 μL) and continued, with occasional stirring, at 30° C. for 30 minutes. The final reaction amount was maintained at 50 μL, then 25 μL of a 4×SDS sample buffer was added to stop the reaction. SDS-PAGE was performed at gel concentrations of 5.5% and 12.5%, and then autoradiography was carried out to detect the phosphorylated proteins. The phosphorylation strength of each protein was measured by an Image Analyzer BAS2000 (Fuji Film).
# More particularly, 6H-hSMG-1 was prepared in accordance with the procedure described in Example 7(3). In the presence of various concentrations of wortmannin or caffeine shown in FIG. 26 and FIG. 27, the hUpf1/SMG-2 fusion protein (S1096) prepared in Example 9(3) was used as the substrate, to perform an in vitro kinase assay. […]
# [4] = system: hUpf1/SMG-2 phosphorylation in HeLa cells; format: cell-based, human; conditions: 30 min pretreatment, then 4.5 hours with 50 nmol/L okadaic acid, FIG. 28
# Protocol: HeLa cells were pretreated for 30 minutes in the presence or absence of various concentrations of wortmannin, caffeine, or rapamycin shown in FIG. 28. Next, the cells were treated for 4.5 hours in the presence of wortmannin, caffeine, or rapamycin and in the presence or absence of 50 nmol/L okadaic acid. Cell lysates were prepared and analyzed by Western blotting using the anti-Upf1/SMG-2 antibody.
# Further, “hUPF1-P” means phosphorylated hUpf1/SMG-2, while “hUPF1” means unphosphorylated hUpf1/SMG-2.
smiles,measurement,setting,value
C=C1[C@@H](O)[C@@H]2O[C@]3(CC[C@H](/C=C/[C@@H](C)[C@@H]4CC(C)=C[C@@]5(O[C@H](C[C@@](C)(O)C(=O)O)CC[C@H]5O)O4)O3)CC[C@H]2O[C@@H]1[C@@H](O)C[C@H](C)[C@H]1O[C@@]2(CCCCO2)CC[C@H]1C [okadaic acid],upwardly shifted (phosphorylated) band of hUpf1/SMG-2,[1],upwardly shifted band of hUpf1/SMG-2 appears
"C[C@@H]1C[C@@H]([C@H](O)CC2CC(=O)NC(=O)C2)C(=O)[C@@H](C)C1 [CHX, cyclohexamide]",inhibition of NMD,[2],inhibited NMD
COC[C@H]1OC(=O)c2coc3c2[C@@]1(C)C1=C(C3=O)[C@@H]2CCC(=O)[C@@]2(C)C[C@H]1OC(C)=O [wortmannin],IC50,[3]; FIG. 26,~0.06 µM
Cn1c(=O)c2c(ncn2C)n(C)c1=O [caffeine],IC50,[3]; FIG. 27,~300 µM
same,inhibition of the upward shift of hUpf1/SMG-2,[4],inhibited the upward shift
same,accumulation of BGG 39PTC mRNA,[2],resulted in the accumulation of BGG 39PTC
